The target of the test is T1, Aldehyde oxidase 1 (Oryctolagus cuniculus, UniProt P80456).
T1 sequence (P80456 whole entry): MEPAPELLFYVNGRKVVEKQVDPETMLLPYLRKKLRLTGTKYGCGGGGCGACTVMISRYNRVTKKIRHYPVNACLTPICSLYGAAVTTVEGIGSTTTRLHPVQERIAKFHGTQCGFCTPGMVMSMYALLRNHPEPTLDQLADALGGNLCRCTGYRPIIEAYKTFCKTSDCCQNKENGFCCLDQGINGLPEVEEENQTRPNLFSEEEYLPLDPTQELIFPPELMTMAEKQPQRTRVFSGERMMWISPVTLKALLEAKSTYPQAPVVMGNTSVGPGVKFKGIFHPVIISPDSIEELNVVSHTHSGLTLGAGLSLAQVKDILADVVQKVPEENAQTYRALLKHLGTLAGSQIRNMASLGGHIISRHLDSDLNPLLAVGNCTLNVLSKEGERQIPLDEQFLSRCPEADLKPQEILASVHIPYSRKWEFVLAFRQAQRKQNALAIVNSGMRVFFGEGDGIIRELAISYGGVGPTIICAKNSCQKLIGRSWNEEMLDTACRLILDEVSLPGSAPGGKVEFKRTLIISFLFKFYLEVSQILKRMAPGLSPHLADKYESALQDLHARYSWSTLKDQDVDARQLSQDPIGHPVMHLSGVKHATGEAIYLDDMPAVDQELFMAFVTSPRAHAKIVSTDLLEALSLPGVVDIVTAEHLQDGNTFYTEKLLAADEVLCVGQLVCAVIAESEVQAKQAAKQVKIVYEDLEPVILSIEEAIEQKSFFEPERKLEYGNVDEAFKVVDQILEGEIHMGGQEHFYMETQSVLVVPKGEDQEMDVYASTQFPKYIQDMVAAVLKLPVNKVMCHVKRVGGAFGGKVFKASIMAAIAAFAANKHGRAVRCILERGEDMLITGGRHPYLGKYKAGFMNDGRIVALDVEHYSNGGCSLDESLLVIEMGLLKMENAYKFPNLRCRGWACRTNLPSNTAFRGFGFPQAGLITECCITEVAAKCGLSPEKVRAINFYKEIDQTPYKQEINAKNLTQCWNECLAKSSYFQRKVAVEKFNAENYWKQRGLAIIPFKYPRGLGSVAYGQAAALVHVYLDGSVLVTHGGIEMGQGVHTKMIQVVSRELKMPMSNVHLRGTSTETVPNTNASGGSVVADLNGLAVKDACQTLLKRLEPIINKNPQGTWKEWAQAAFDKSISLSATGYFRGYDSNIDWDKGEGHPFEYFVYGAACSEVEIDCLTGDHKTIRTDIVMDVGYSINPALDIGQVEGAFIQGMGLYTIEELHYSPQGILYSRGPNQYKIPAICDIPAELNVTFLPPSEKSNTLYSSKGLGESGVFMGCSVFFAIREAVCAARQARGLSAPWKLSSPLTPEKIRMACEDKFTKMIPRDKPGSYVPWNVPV
The test is described as follows: Inhibition of rabbit aldehyde oxidase.

This passage reports IC50 results from ChEMBL document CHEMBL1629464, “Aldehyde oxidase: an enzyme of emerging importance in drug discovery” (J Med Chem, 2010).

For orientation: IC50 means the midpoint of a concentration-inhibition curve.

The compound `C[C@]12CC[C@@H]3c4ccc(O)cc4CC[C@H]3[C@@H]1CC[C@@H]2O` [ESTRADIOL] yielded a concentration for half-maximal inhibition (IC50) of 40 µM.
